Primed or numbered codes have the meaning given here. *: point of attachment. 2at = 2-aminothiazol-4-yl N-terminal cap, Nc1nc(*)cs1; Hdc = hexadecyl (lipid tether group); PEG3′ = not defined here
Columns and labels:
Type in all cases: cell-based
PAR2 [1] = molecular target: T1, PAR2 (Homo sapiens, UniProt P55085); assay: RTCA screen (xCELLigence in vitro physiological signalling assay)
T1 sequence (P55085 26-397): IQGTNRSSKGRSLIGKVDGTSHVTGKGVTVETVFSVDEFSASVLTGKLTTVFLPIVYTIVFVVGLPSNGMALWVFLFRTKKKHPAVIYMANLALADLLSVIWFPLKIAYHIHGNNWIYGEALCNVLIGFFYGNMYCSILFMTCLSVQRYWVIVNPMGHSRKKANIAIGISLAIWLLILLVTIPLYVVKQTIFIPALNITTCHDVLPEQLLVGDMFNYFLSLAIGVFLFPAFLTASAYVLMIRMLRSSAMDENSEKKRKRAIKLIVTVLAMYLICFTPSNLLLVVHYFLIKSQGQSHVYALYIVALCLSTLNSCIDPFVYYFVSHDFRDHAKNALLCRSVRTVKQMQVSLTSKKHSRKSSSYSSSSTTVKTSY
From the text: FIGS. 5A-B show in vitro physiological PAR2 agonist screening using xCELLigence. […] This compound was a biased-signalling antagonist in that it had no effect on mitogen activated protein kinase (MAPK) signalling, the other major signalling pathway activated via PAR2. […] Thus, experiments screened a series of potential PAR2 ligands with a heterocycle serine substitute followed by four amino acids (XXGR) and the PEG3-Hdc lipid tether. […], C595 and […] are novel pharmacological tools that can be used to evaluate the physiological consequences of PAR2 full and biased ligand signalling.

PAR2 [2] = molecular target: T1, PAR2; assay: Mitogen activated protein kinase (MAPK) signalling activated via PAR2; conditions: for Effect on MAPK signalling (as antagonist): C608 at nanomolar concentrations
From the text: (§1) This compound was a biased-signalling antagonist in that it had no effect on mitogen activated protein kinase (MAPK) signalling, the other major signalling pathway activated via PAR2. […] C595 is closely related to the previously described potent and specific PAR2 agonist, 2-at-LIGR (SEQ ID NO: 1)-PEG3-Hdc. Thus, experiments screened a series of potential PAR2 ligands with a heterocycle serine substitute followed by four amino acids (XXGR) and the PEG3-Hdc lipid tether. […] C562, C595 and C608 are novel pharmacological tools that can be used to evaluate the physiological consequences of PAR2 full and biased ligand signalling.

PAR2 [3] = molecular target: T1, PAR2; assay: PAR2 Ca2+ signalling in cultured human bronchial epithelial cells (16HBE14o-); parameters: endogenous in cells; host or cells: 16HBE14o- human bronchial epithelial cells; conditions: for Block of PAR2 Ca2+ signalling elicited via protease activation: Alternaria alternata filtrates; for Block of PAR2 Ca2+ signalling elicited via protease activation / Block of PAR2 Ca2+ signalling elicited via peptidomimetics: 16HBE14o- cells, C608 at nanomolar concentrations; for Block of PAR2 Ca2+ signalling elicited via peptidomimetics: activation by 2-at-LIGRL-NH2
From the text: as §1

Compound Summary as Determined by RTCA Screen (PAR2 [1]) | Substance | also measured
No Activity at PAR2 Detected | 2at-(dL)IGR-PEG3-Hdc [Compound 24] | –
No Activity at PAR2 Detected | 2at-(dT)IGR-PEG3-Hdc [Compound 26] | –
No Activity at PAR2 Detected | 2at-DIGR-PEG3-Hdc [Compound 15] | –
PAR2 Agonist | 2at-HIGR-PEG3-Hdc [Compound 16] | –
No Activity at PAR2 Detected | 2at-SIGR-PEG3-Hdc [Compound 13] | –
No Activity at PAR2 Detected | 2at-SRGR-PEG3-Hdc [Compound 7] | –

The remaining lines, values behind:

Substance | Compound Summary as Determined by RTCA Screen (PAR2 [1]) | also measured
2at-4thiazolamine-IGR-PEG3-Hdc [Compound 23] | No Activity at PAR2 Detected | –
2at-(dl)IGR-PEG3-Hdc [Compound 25] | No Activity at PAR2 Detected | –
2at-LIGR-PEG3-Hdc [Compound 12] | Full PAR2 Agonist | –
2at-LKGR-PEG3-Hdc [Compound 11] | Full PAR2 Agonist | –
2at-SHGR-PEG3-Hdc [Compound 8] | No Activity at PAR2 Detected | –
2at-SKGR-PEG3-Hdc (2at-SKGR-{PEG3′-Hdc}) [Compound 6] | – | Antagonistic activity against peptidomimetic activation (PAR2 [1]; xCELLigence in vitro physiological signalling assay): maintained antagonistic activity
2at-SKGRS-PEG3-Hdc (2at-SKGRS-{PEG3′-Hdc}) [Compound 5] | PAR2 Antagonist | Effect on MAPK signalling (as antagonist) (PAR2 [2]): no effect; Block of PAR2 Ca2+ signalling elicited via protease activation (PAR2 [3]): blocks PAR2 Ca^2+ signalling; Block of PAR2 Ca2+ signalling elicited via peptidomimetics (PAR2 [3]): blocks PAR2 Ca^2+ signalling
2at-TIGR-PEG3-Hdc (2at-TIGR-{PEG3′-Hdc}) [Compound 14] | PAR2 Agonist and Antagonist | MAPK pathway profile (agonist/antagonist) (PAR2 [2]): Full MAPK agonist; Effect on MAPK signalling (as antagonist) (PAR2 [2]): without effects on MAPK signalling; RTCA signalling profile (agonist/antagonist) (PAR2 [1]; listed as C608): Partial RTCA agonist and potent anatagonist (low concentrations); Ca2+ signalling profile (agonist/antagonist) (PAR2 [3]): Partial Ca^2+ signalling agonist and potent antagonist (low concentrations); Block of PAR2 Ca2+ signalling elicited via protease activation (PAR2 [3]): blocked PAR2-dependent Ca^2+ signalling; Block of PAR2 Ca2+ signalling elicited via peptidomimetics (PAR2 [3]): blocked PAR2-dependent Ca^2+ signalling
2at-TKGR-PEG3-Hdc [Compound 10] | No Activity at PAR2 Detected | –
2at-VIGR-PEG3-Hdc [Compound 17] | PAR2 Agonist | –
2at-homoserine-IGR-PEG3-Hdc [Compound 21] | PAR2 Agonist | –
2at-hydroxyproline-IGR-PEG3-Hdc [Compound 20] | No Activity at PAR2 Detected | –
2at-penicillamine-IGR-PEG3-Hdc [Compound 22] | No Activity at PAR2 Detected | –

Source: patent US11351264B2, “PAR2 mimetic peptides and uses thereof” (ARIZONA BOARD OF REGENTS ON BEHALF OF THE UNIVERSITY OF …, priority 2016, dated 2022)
